Our source for the TGI and GI50 values is PubChem BioAssay (NCI).

Among the test systems are HL-60(TB) leukemia; SNB-75 CNS; LXFL 529 NSCLC; LOX IMVI melanoma; KM20L2 colon; DMS 114 small cell lung; NCI-H23 lung; OVCAR-4 ovarian; DU-145 prostate; MDA-MB-435; UACC-257 melanoma; SR leukemia; NCI/ADR-RES ovarian; MDA-MB-231 breast; BT-549 breast.
Common to all, as to experiment: NCI tumour cell line growth inhibition, 48 h

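Each compound was tested at five concentrations against cells in 96-well plates for 48 hours. GI50 is the concentration that inhibits growth by half. TGI is the concentration that stops growth completely.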 Where only a bound is given, the exact number is not on record here.

For `O=S(=O)(CF)OCCCCOS(=O)(=O)CF`, the TGI in the assay on HL-60(TB) leukemia, in the assay with SNB-75 CNS, in the assay on LXFL 529 NSCLC, with LOX IMVI melanoma, in the assay on KM20L2 colon and in the assay on DMS 114 small cell lung was above 100 µM each time. This molecule also returned a TGI with NCI-H23 lung above 100 µM.

Consider `Clc1ccc(N2N=C(c3cccc(Nc4ccncc4)c3)CC2c2ccc(Br)cc2)cc1` (stereo unspecified), for which the GI50 in the assay on HL-60(TB) leukemia was 2.02 µM; in the assay on OVCAR-4 ovarian, 1.83 µM; with SNB-75 CNS, 1.41 µM; in the assay with DU-145 prostate, 1.8 µM; with MDA-MB-435, 1.65 µM. Besides, the TGI in the assay on HL-60(TB) leukemia amounted to 4.51 µM; in the assay with OVCAR-4 ovarian, 3.36 µM; in the assay on SNB-75 CNS it was 2.9 µM; with DU-145 prostate it was 3.25 µM; in the assay with MDA-MB-435, 3.08 µM.

For `Cn1c(=O)[nH]c2c(c1=O)C(=O)CN2`, the TGI in the assay on HL-60(TB) leukemia, in the assay on OVCAR-4 ovarian, in the assay with SNB-75 CNS, in the assay with LXFL 529 NSCLC, in the assay with UACC-257 melanoma and with SR leukemia was above 100 µM each time. The TGI in the assay with LOX IMVI melanoma, with KM20L2 colon and in the assay on DMS 114 small cell lung was above 100 µM throughout.

Take `N#CCCN(CCC#N)c1ccc(/C=C(/NC(=O)Nc2ccccc2Cl)NC(=O)c2cc([N+](=O)[O-])ccc2Cl)cc1`: the TGI in the assay with OVCAR-4 ovarian, in the assay on LXFL 529 NSCLC, in the assay with SR leukemia, in the assay with LOX IMVI melanoma, in the assay on KM20L2 colon and with DMS 114 small cell lung was above 100 µM throughout.

For `CCOC(=O)c1ccc(N(CCOS(=O)(=O)c2ccc(C)cc2)CCOS(=O)(=O)c2ccc(C)cc2)cc1`, the TGI with NCI/ADR-RES ovarian is above 100 µM; in the assay on OVCAR-4 ovarian, above 100 µM; in the assay on UACC-257 melanoma, above 100 µM; in the assay on MDA-MB-435 it was above 100 µM; with LOX IMVI melanoma it was above 100 µM; in the assay on MDA-MB-231 breast it was 86.8 µM. The TGI with BT-549 breast and in the assay on NCI-H23 lung was above 100 µM in each case.

As for `C[Si](C)(C)/C=C/CN1C(=O)CCC1=O`, the TGI with HL-60(TB) leukemia, in the assay on SNB-75 CNS, in the assay with LXFL 529 NSCLC, in the assay with SR leukemia, in the assay with LOX IMVI melanoma and in the assay with KM20L2 colon was above 100 µM in each case. Further, the TGI in the assay with DMS 114 small cell lung and in the assay on NCI-H23 lung was above 100 µM throughout.

Consider `O=C(NCCN(CCNC(=O)c1cccc(=O)n1O)CCNC(=O)c1cccc(=O)n1O)c1cccc(=O)n1O`, for which the TGI in the assay on NCI/ADR-RES ovarian, with HL-60(TB) leukemia, in the assay with OVCAR-4 ovarian, in the assay with SNB-75 CNS, in the assay on DU-145 prostate and in the assay on UACC-257 melanoma was above 100 µM each time. Besides, the TGI in the assay with SR leukemia, with MDA-MB-435, with MDA-MB-231 breast, in the assay on BT-549 breast and in the assay with NCI-H23 lung was above 100 µM each time.

Regarding `Cc1ccc(CN2CCN(Cc3ccc(C)o3)C(C)C2)o1` (stereo unspecified), the TGI in the assay on NCI/ADR-RES ovarian, in the assay on HL-60(TB) leukemia, with OVCAR-4 ovarian, in the assay on SNB-75 CNS, with DU-145 prostate and with UACC-257 melanoma was above 100 µM each time. Also, the TGI in the assay with SR leukemia, in the assay on MDA-MB-435, with LOX IMVI melanoma, in the assay on MDA-MB-231 breast, with BT-549 breast and in the assay on NCI-H23 lung was above 100 µM each time.

With `COC(=O)C(=O)C(C(C)=O)C(=O)C(=O)Nc1ccc(C)cc1C` (stereo unspecified), the TGI in the assay with HL-60(TB) leukemia, in the assay on OVCAR-4 ovarian, in the assay with SNB-75 CNS, in the assay with LXFL 529 NSCLC, in the assay on UACC-257 melanoma and in the assay with SR leukemia was above 100 µM throughout. Also, the TGI in the assay on LOX IMVI melanoma, in the assay with KM20L2 colon, in the assay on DMS 114 small cell lung and with NCI-H23 lung was above 100 µM throughout.

With `COc1ccc(NC(/C(C(=O)C(=O)/C=C(\O)c2ccccc2)=C(\O)c2ccccc2)c2ccc(OC)cc2)cc1` (stereo unspecified), the TGI in the assay with NCI/ADR-RES ovarian is above 100 µM; with HL-60(TB) leukemia, 75.3 µM; in the assay with OVCAR-4 ovarian, above 100 µM; in the assay on SNB-75 CNS, 51.9 µM; in the assay on DU-145 prostate it was above 100 µM; in the assay with UACC-257 melanoma, above 100 µM. Moreover, the TGI in the assay with SR leukemia was above 100 µM; in the assay on MDA-MB-435, 59.1 µM; in the assay on MDA-MB-231 breast, above 100 µM; in the assay with BT-549 breast it was above 100 µM; with NCI-H23 lung it was above 100 µM.

As for `COc1ccc(N[C@@H]2c3cc4c(cc3C(c3cc(OC)c(O)c(OC)c3)[C@H]3C(=O)OCC32)OCO4)cc1OC` (stereo partly specified), the TGI in the assay with NCI/ADR-RES ovarian was above 100 µM; in the assay on OVCAR-4 ovarian, above 100 µM; in the assay on UACC-257 melanoma it was 38.5 µM; in the assay with LOX IMVI melanoma it was above 100 µM; with KM20L2 colon it was above 100 µM; in the assay on DMS 114 small cell lung, above 21.9 µM. The molecule further returned a TGI with NCI-H23 lung of 1.92 µM.

For the molecule `COc1cc(C(=O)OC2CC34CCNC35CC(OC5(OC)C2O)c2cc3c(cc24)OCO3)ccc1O` (stereo unspecified), the TGI with NCI/ADR-RES ovarian, with HL-60(TB) leukemia, in the assay on OVCAR-4 ovarian, in the assay on SNB-75 CNS, in the assay with DU-145 prostate and with UACC-257 melanoma was above 100 µM in each case. Moreover, the TGI with SR leukemia, in the assay on MDA-MB-435, in the assay with LOX IMVI melanoma, with MDA-MB-231 breast, in the assay with BT-549 breast and in the assay with NCI-H23 lung was above 100 µM each time.

Turning to `CC(=O)c1cccc(Nc2nc3ccccc3c3[nH]c4ccccc4c23)c1`, the TGI with NCI/ADR-RES ovarian was above 100 µM; with DU-145 prostate, above 100 µM; in the assay on UACC-257 melanoma, above 100 µM; in the assay on MDA-MB-435, 71.1 µM; in the assay on MDA-MB-231 breast it was 51.6 µM; in the assay on BT-549 breast, above 100 µM. This molecule gave a TGI with NCI-H23 lung above 100 µM.

Regarding `CCCCCC(/C=C/c1ncccc1OCCCCCC(=O)O)=N\NC1=NCCN1`, the TGI in the assay with HL-60(TB) leukemia, with OVCAR-4 ovarian, with SNB-75 CNS, in the assay with LXFL 529 NSCLC, in the assay on SR leukemia and in the assay with LOX IMVI melanoma was above 100 µM each time. Further, the TGI with KM20L2 colon and with DMS 114 small cell lung was above 100 µM in each case.
